Data from ChEMBL document CHEMBL5338806, “Rationally Designed Nonapeptides with Great Skin Photoprotective Effect through Producing Type 1 Collagen and Blocking the mTOR Pathway” (J Med Chem, 2023).
Calls of active or inactive are those of the source. The calls are words filed in the database; no cut-off is given here. Where a SMILES comes first, the peptide text is derived from it.

What was measured:
HEK293 = assay: Activation of COL1a2 transcriptional activity in HEK293 cells by dual-luciferase reporter assay; format: functional, cell-based; conditions: Homo sapiens
HFF-1 = assay: Cytotoxicity against HFF-1 cells upto 160 ug/mL incubated for 24 hrs by MTT assay; format: toxicity, cell-based; conditions: human, hff-1, 24 h, up to 160 µg/mL
[1] = Antioxidant activity assessed as ROS scavenging activity; format: functional
Mus musculus = assay: Protection against UV radiation-stress induced skin damage in Kunming mouse model assessed as repair of broken skin at 20 ug/ml administered topically and measured every 2 days for 10 days; format: functional, organism-based; conditions: dose 20.0 µg/ml, route top, time 10.0 day
[2] = Antioxidant activity assessed as DPPH radical scavenging activity by measuring eradication rate at 80 ug/mL incubated for 30 mins by absorbance based assay relative to control; format: functional; conditions: dose 80.0 µg/ml

SMILES | Activity (HEK293) | Activity (HFF-1) [%] | Activity [1] | Activity (Mus musculus) | Activity [2] [%]
CC(C)C[C@H](NC(=O)[C@H](CCCCN)NC(=O)[C@@H]1CCCN1C(=O)[C@H](CC(C)C)NC(=O)[C@@H](N)C(C)C)C(=O)N[C@@H](CCC(=O)O)C(=O)N[C@@H](CS)C(=O)N[C@H](C(=O)N[C@@H](Cc1c[nH]c2ccccc12)C(=O)O)C(C)C (H-VLPKLECVW-OH) | Active | – | – | – | –
CC(C)C[C@H](NC(=O)[C@H](Cc1c[nH]c2ccccc12)NC(=O)[C@@H]1CCCN1C(=O)[C@@H]1CCCN1C(=O)[C@H](CC(C)C)NC(=O)[C@@H](N)CC(C)C)C(=O)N[C@@H](CCCNC(=N)N)C(=O)N1CCC[C@H]1C(=O)N[C@@H](CCCCN)C(=O)N[C@@H](CS)C(=O)N[C@@H](CO)C(=O)O (H-LLPPWLRPKCS-OH) | Active | – | – | – | –
CC(C)[C@H](N)C(=O)N[C@H](C(=O)N1CCC[C@H]1C(=O)N1CCC[C@H]1C(=O)N[C@@H](CS)C(=O)N[C@@H](CCCCN)C(=O)O)C(C)C (H-VVPPCK-OH) | – | 2.84 | Active | – | –
CC(C)[C@H](N)C(=O)N[C@H](C(=O)N[C@@H](CCCCN)C(=O)N[C@@H](CS)C(=O)N1CCC[C@H]1C(=O)N[C@@H](CCCCN)C(=O)O)C(C)C (H-VVKCPK-OH) | Active | – | Active | Active | 85.4
